Measurements as given in patent publication US20250179017A1 (GUANGDONG NEWOPP BIOPHARMACEUTICALS CO., LTD., priority 2022, published 2025).

What follows are compounds tested against T1, human EP2 (PTGER2) (Homo sapiens, UniProt P43116) (assay: EP2 antagonist assay (HEK-293 CNG membrane potential cAMP assay / 293T SEAP reporter assay, PGE2-stimulated)). Conditions: EP2 antagonist activity; concentration for 50% inhibition of signal compared to DMSO.
T1 construct: Cayman Chemical (Human EP2 Reporter Assay Kit)
Type: cell-based
Description: 1. The HEK-293 CNG (Cyclic Nucleotide Gated) cell line expressing a modified CNG channel that leads to cell membrane depolarization in response to elevated intracellular cAMP levels, which can be measured using a fluorescent membrane potential dye, was engineered to express human EP2 (PTGER2) or EP4 (EP4R). The resulting cell line ACTOne™ PTGER2 or ACTOne™ EP4R as well as the fluorescent membrane potential dye were purchased from eEnzyme (Gaithersburg, MD, US) and used in this assay. Briefly, cells were plated at 1.2×10^4 cells/well in 20 μL DMEM supplemented with 2% Fetal Bovine Serum (FBS, VWR International), 1x Penicillin/Streptomycin (GenClone), 0.2 μg/mL puromycin (InvivoGen) and 50 μg/mL G418 (InvivoGen) on a 384 well plate (Greiner). The next day, cells were dye-loaded with 20 μL/well of 1x Dye-loading solution (eENZYME) following the manufacturer's instruction. After 2 hours of incubation at room temperature (RT) in the dark, a pre-read was made to obtain the background signals using CLARIOstar plate reader (BMG LABTECH, Germany) with the following filter settings: excitation=530/20 nm, emission=590/20 nm. Next, a serial dilution of compound (plus a DMSO control) were added to the plate (5 μL/well) and the reaction was incubated at RT for 15 min before adding 5 μL of PGE2 to every well for a final concentration of 5 nM. All wells were duplicated. The plate was then further incubated at RT for 30 min prior to a final read with the same machine settings. Background-subtracted signals were used to calculate IC50 values.
2. Human EP2 and EP4 Reporter Assay Kits were purchased from Cayman Chemical (Ann Arbor, MI, USA). The assay was performed following the provided User Manual. Briefly, a reverse transfection was performed by seeding 6.0×10^4 of 293T cells (ATCC) to each well of the provided Strip Plate coated with a proprietary transfection complex containing DNA constructs for expressing human EP2 or EP4 and a cAMP response element regulated secreted alkaline phosphatase (SEAP) reporter, in 200 μL DMEM supplemented with 2% FBS and incubated for 20-24 hours at 37° C. with 5% CO2. After the incubation, the culture medium was carefully removed, and the cells were replenished with 150 μL pre-warmed serum-free medium. PGE2 and test compounds were prepared together at 4x the desired final concentration, and 50 μL was added to each assigned well with the final concentration of 13 nM and 2 nM PGE2 for EP2 and EP4 assay, respectively. After 6-8 hours of incubation, 10 μL media from each well was transferred to corresponding well of a new plate, which was then sealed and incubated at 65° C. for 30 min. The plate was then cooled down to RT and 50 μL SEAP substrate was added to each well. Luminescence signal was measured using a CLARIOstar plate reader.
The IC50 value was determined as the concentration for 50% inhibition of signal compared to DMSO (A: IC50 […]; B: IC50 between 100 nM and 1,000 nM; C: IC50≥1,000 nM).

T1 sequence (P43116 whole entry): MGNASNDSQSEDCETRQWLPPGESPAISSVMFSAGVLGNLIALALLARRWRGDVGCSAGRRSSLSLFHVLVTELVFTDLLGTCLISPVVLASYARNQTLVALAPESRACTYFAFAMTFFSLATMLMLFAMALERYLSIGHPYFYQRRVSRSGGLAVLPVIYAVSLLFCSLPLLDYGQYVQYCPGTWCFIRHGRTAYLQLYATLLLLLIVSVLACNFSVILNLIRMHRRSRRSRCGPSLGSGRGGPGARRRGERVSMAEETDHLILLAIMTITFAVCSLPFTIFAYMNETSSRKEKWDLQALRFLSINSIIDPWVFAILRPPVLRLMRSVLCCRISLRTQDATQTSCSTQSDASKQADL

IC50 | SMILES
< 100 nM | O=C(O)c1ccc(CNC(=O)c2cc(-c3cc(F)cc(C(F)(F)F)c3)cc3ccn(Cc4ccc(C(F)(F)F)cc4)c23)cc1 [Example 11, 4-((5-(3-fluoro-5-(trifluoromethyl)phenyl)-1-(4-(trifluoromethyl)benzyl)-1H-indole-7-carboxamido)methyl)benzoic acid]
≥ 1000 nM | C[C@@H](NC(=O)c1cc(-c2cccc(C#N)c2)cc2ccn(Cc3ccc(C(F)(F)F)cc3)c12)c1ccc(C(=O)O)cc1 [Example 12, (R)-4-(1-(5-(3-cyanophenyl)-1-(4-(trifluoromethyl)benzyl)-1H-indole-7-carboxamido)ethyl) benzoic acid]
≥ 1000 nM | C[C@@H](NC(=O)c1cc(-c2ccc(F)c(F)c2)cc2ccn(Cc3ccc(C(F)(F)F)cc3)c12)c1ccc(C(=O)O)cc1 [Example 13, (R)-4-(1-(5-(3,4-difluorophenyl)-1-(4-(trifluoromethyl)benzyl)-1H-indole-7-carboxamido)ethyl)benzoic acid]
≥ 1000 nM | C[C@@H](NC(=O)c1cc(-c2cc(F)cc(F)c2)cc2ccn(Cc3ccc(C(F)(F)F)cc3)c12)c1ccc(C(=O)O)cc1 [Example 14, (R)-4-(1-(5-(3,5-difluorophenyl)-1-(4-(trifluoromethyl)benzyl)-1H-indole-7-carboxamido)ethyl) benzoic acid]
≥ 1000 nM | C[C@@H](NC(=O)c1cc(-c2cccc(C(F)(F)F)c2)cc2ccn(Cc3ccc(C(F)(F)F)cc3)c12)c1ccc(C(=O)O)cc1 [Example 15, (R)-4-(1-(1-(4-(trifluoromethyl)benzyl)-5-(3-(trifluoromethyl)phenyl)-1H-indole-7-carboxamido)ethyl) benzoic acid]
≥ 1000 nM | C[C@@H](NC(=O)c1cc(-c2cc(F)cc(C(F)(F)F)c2)cc2ccn(Cc3ccc(C(F)(F)F)cc3)c12)c1ccc(C(=O)O)cc1 [Example 16, (R)-4-(1-(5-(3-fluoro-5-(trifluoromethyl)phenyl)-1-(4-(trifluoromethyl)benzyl)-1H-indole-7-carboxamido)ethyl)benzoic acid]
< 100 nM | N#Cc1cccc(-c2cc(C(=O)NC3(c4ccc(C(=O)O)cc4)CC3)c3c(ccn3Cc3ccc(C(F)(F)F)cc3)c2)c1 [Example 17, 4-(1-(5-(3-cyanophenyl)-1-(4-(trifluoromethyl)benzyl)-1H-indole-7-carboxamido)cyclopropyl)benzoic acid]
100 to 1000 nM | O=C(O)c1ccc(C2(NC(=O)c3cc(-c4ccc(F)c(F)c4)cc4ccn(Cc5ccc(C(F)(F)F)cc5)c34)CC2)cc1 [Example 18, 4-(1-(5-(3,4-difluorophenyl)-1-(4-(trifluoromethyl)benzyl)-1H-indole-7-carboxamido)cyclopropyl)benzoic acid]
≥ 1000 nM | O=C(O)c1ccc(C2(NC(=O)c3cc(-c4cc(F)cc(F)c4)cc4ccn(Cc5ccc(C(F)(F)F)cc5)c34)CC2)cc1 [Example 19, 4-(1-(5-(3,5-difluorophenyl)-1-(4-(trifluoromethyl)benzyl)-1H-indole-7-carboxamido)cyclopropyl)benzoic acid]
≥ 1000 nM | O=C(O)c1ccc(C2(NC(=O)c3cc(-c4cccc(C(F)(F)F)c4)cc4ccn(Cc5ccc(C(F)(F)F)cc5)c34)CC2)cc1 [Example 20, 4-(1-(1-(4-(trifluoromethyl)benzyl)-5-(3-(trifluoromethyl)phenyl)-1H-indole-7-carboxamido)cyclopropyl)benzoic acid]
100 to 1000 nM | O=C(O)c1ccc(C2(NC(=O)c3cc(-c4cc(F)cc(C(F)(F)F)c4)cc4ccn(Cc5ccc(C(F)(F)F)cc5)c34)CC2)cc1 [Example 21, 4-(1-(5-(3-fluoro-5-(trifluoromethyl)phenyl)-1-(4-(trifluoromethyl)benzyl)-1H-indole-7-carboxamido)cyclopropyl)benzoic acid]
100 to 1000 nM | N#Cc1cccc(-c2ccc(C(=O)NCc3ccc(C(=O)O)cc3)c3c2ccn3Cc2ccc(C(F)(F)F)cc2)c1 [Example 22, 4-((4-(3-cyanophenyl)-1-(4-(trifluoromethyl)benzyl)-1H-indole-7-carboxamido)methyl)benzoic acid]
